13 compounds from ChEMBL document CHEMBL1128939, “New simplified inhibitors of EPSP synthase: The importance of ring size for recognition at the shikimate 3-phosphate site” (Bioorg Med Chem Lett, 1996) can be followed below.

The target in this assay is T1, 3-phosphoshikimate 1-carboxyvinyltransferase (Escherichia coli K-12, UniProt P0A6D3).
T1 sequence (P0A6D3 whole entry): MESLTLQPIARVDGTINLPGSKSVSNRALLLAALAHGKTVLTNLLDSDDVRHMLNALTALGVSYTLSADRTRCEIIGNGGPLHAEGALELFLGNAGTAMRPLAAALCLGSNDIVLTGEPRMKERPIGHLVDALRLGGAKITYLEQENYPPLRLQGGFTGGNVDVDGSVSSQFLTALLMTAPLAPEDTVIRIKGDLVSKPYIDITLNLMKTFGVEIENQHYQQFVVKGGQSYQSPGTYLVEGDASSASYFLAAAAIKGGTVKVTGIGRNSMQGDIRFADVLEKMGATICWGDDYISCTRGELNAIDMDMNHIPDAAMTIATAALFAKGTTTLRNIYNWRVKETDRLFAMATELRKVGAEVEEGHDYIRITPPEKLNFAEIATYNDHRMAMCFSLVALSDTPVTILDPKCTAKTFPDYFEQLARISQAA
The assay is described as follows: Compound was tested for inhibitory activity against EPSP(5-enolpyruvylshikimate 3-phosphate) synthase in Escherichia coli. Particulars: for Ki: read-out: Ki app.

For orientation: IC50 means the point on the concentration scale where inhibition reaches its midpoint. A lower IC50 goes with greater potency in that assay.

For the compound `O=C(O)C1=C[C@@H](OP(=O)(O)O)[C@@H](O)[C@H](O[C@](OP(=O)(O)O)(C(=O)O)C(F)F)C1`, the Ki came out at 0.004 µM. The same measure, in the same setting: under `O=C(O)c1cc(OC(C(=O)O)C(=O)O)cc(OC(C(=O)O)P(=O)(O)O)c1` (stereo not drawn) stands 1.3 µM; under `O=C(O)C1=C[C@@H](OP(=O)(O)O)[C@@H](O)CC1`, 13 µM. Consider `O=C(O)c1ccc(O)c(C(O)(C(=O)O)C(=O)O)c1`, for which the IC50 was 20000 µM. On the same count and under the same terms, under `O=C(O)c1cccn1CP(=O)(O)O` stands 50000 µM. Regarding `O=C(O)C1=C[C@@H](OP(=O)(O)O)[C@@H](O)[C@H](O[C@](CF)(OP(=O)(O)O)C(=O)O)C1`, the Kd (read-out: Kd app) amounted to 0.0006 µM. Regarding `O=C(O)C1=C[C@@H](OP(=O)(O)O)[C@@H](O)[C@H](O[C@](OP(=O)(O)O)(C(=O)O)C(F)(F)F)C1`, the Ki stood at 0.032 µM. Turning to `O=C(O)c1cccc(P(=O)(O)O)c1`, the IC50 is 50000 µM.

As to `O=C(O)c1cc(OC(C(=O)O)P(=O)(O)O)c(O)c(C(O)(C(=O)O)C(=O)O)c1` (stereo not drawn), the Ki turned out to be 0.52 µM. On the same count and under the same terms, with `C[C@@](O[C@@H]1CC(C(=O)O)=C[C@@H](OP(=O)(O)O)[C@H]1O)(C(=O)O)P(=O)(O)O` the figure was 0.005 µM. `O=C(O)c1cccc(P(=O)(O)O)n1` returned an IC50 of 50000 µM. The compound `O=C(O)C1CCC(P(=O)(O)O)N1` (stereo not drawn) had an IC50 of 50000 µM. For `O=C(O)c1cc(C(O)P(=O)(O)O)c[nH]1` (stereo not drawn), the Ki stood at 0.0145 µM.
